From patent US9295722B2, “Bacterial glycolipid activation of CD1d-restricted NKT cells” (priority 2005, dated 2016)

Key:
Format in all cases: cell-based
[1] = tested on: mouse NKT cells; assay: mouse CD1d tetramer-sorted NKT cells co-cultured with bone marrow derived DC, IFN-γ ELISA; details: co-cultured with CD1+/− or CD1−/− DC; 48 hrs
Procedure: (§1) Bacterial strains Sphingomonas capsulata (ATCC 14666) and Salmonella typhimurium R71 were grown in Mueller-Hinton Agar. Ehrlichia muris were prepared as described by Ismail N et al., J. Immunol. 172, 1786-1800 (2004), incorporated herein by reference. Bacteria were heat killed by 2-hour exposure to 74° C. and 2.5-5×10^6 cfu equivalent/well were used for in vitro stimulation.
Stimulation assays were performed with whole spleen cells (5×10^5 per 200 μl well) or with purified T cells and antigen presenting cells. […]
(§2) NKT cells were stimulated with heat-killed bacteria as indicated above for 48 hrs in 96 well round bottom plates in RPMI 1640 (Biofluids) supplemented with glutamine, antibiotics, 5×10^−5 M 2-ME and 10% FCS (mouse studies) or 5% AB serum (human studies). Concentrations of mouse and human IFN-γ. in the supernatant were measured at 48 hours using the respective ELISA kits (BD Bioscience, lower detection limit of 12.5 pg/ml).
Whole spleen cells co-cultured with DC of genotype MyD88^−/−, Trif^lps2/lps2 and MyD88^−/−Trif^lps2/lps2 (lacking one or the two adaptors MyD88 and TRIF for TLR signaling) or CD1^−/− were stimulated for 48 hours with 5×10^6 heat killed Salmonella, Sphingomonas or Ehrlichia. Concentrations of mouse and human IFN-γ. in the supernatant were measured at 48 hours using the respective ELISA kits (BD Bioscience, lower detection limit of 12.5 pg/ml).

[2] = tested on: human NKT cells; assay: human NKT cells co-cultured with PBMC-derived DC, IFN-γ ELISA; details: blocking with 1 μg/mL anti-CD1d antibodies or control IgG1
Procedure: as §1
Stimulation assays were performed with whole spleen cells (5×10^5 per 200 μl well) or with purified T cells and antigen presenting cells. T cell populations used in the assays comprised sorted CD1d-Gal-Cer+ mouse spleen cells (5×10^4 per 200 μl well), human peripheral blood lymphocytes (PBL) (5×10^5 per 200 μl well) (obtained after Ficoll centrifugation of heparinized blood) or human NKT cell lines (2.5×10^5 per 200 μl well). […]
as §2

[3] = tested on: NKT cells; assay: activation of NKT cells in vitro by synthetic glycolipids
Text: Activation of NKT cells may be measured in vitro or ex vivo by any suitable method. An example of an in vitro test permitting evaluation of NKT cell activation is co-culturing NKT cells with antigen presenting cells (APC), such as dendritic cells (DC), in the presence of a bacterial glycolipid activator or putative activator, and subsequently assaying for IFN-γ or other secreted cytokines in the supernatant. Alternatively, activation of NKT cells can be measured ex vivo by administering a bacterial glycolipid antigen to a subject or by administering CD1d^+ antigen presenting cells after ex vivo contact with bacterial glycolipids to a subject. The NKT cells from these subjects can be isolated by, e.g., CD1d-tetramer staining and gating via flow cytometry, and subsequently assayed for surface CD69 (early T-cell activation antigen) and/or intracellular IFN-γ by suitable methods.
Some representative examples of suitable bacterial glycolipids for complexing with CD1d molecules and activating NKT cells are depicted in FIG. 5. […] The remaining compounds depicted in FIG. 5 were rationally designed based on the following features determined to be common among glycolipids capable of activating NKT cells: 1) an alpha-type glycosidic linkage and 2) oxidation at the 6-position on the carbohydrate moiety of the glycolipid.

[4] = tested on: mouse NKT cells; assay: fresh purified mouse NKT cells co-cultured with DC pulsed with synthetic glycolipid; details: for IFN-γ secretion: DC pulsed with 0.001 to 1000 ng/mL glycolipid, 48 hours
Procedure: (§3) Stimulation assays were performed with whole spleen cells (5×10^5 per 200 μl well) or with purified T cells and antigen presenting cells. T cell populations used in the assays comprised sorted CD1d-Gal-Cer+ mouse spleen cells (5×10^4 per 200 μl well), human peripheral blood lymphocytes (PBL) (5×10^5 per 200 μl well) (obtained after Ficoll centrifugation of heparinized blood) or human NKT cell lines (2.5×10^5 per 200 μl well). Human Vα24 NKT cells were derived from PBL stimulated with αGal-Cer and were maintained by repeated rounds of stimulation with PHA and IL-2 in the presence of irradiated PBMC and EBV transformed B cells in vitro. Antigen presenting cells were dendritic cells that were derived from bone marrow, stimulated with GMCSF/IL-4 (2 ng/mL and 5 ng/mL, Biosource) and cultured at 2.5×10^5 per 200 μl well for mouse assays, and irradiated allogeneic human PBMC fresh or cultured for 5 days with recombinant human GMCSF/IL-4, ([…] of each cytokine, R&D Systems) (2×10^5 per 200 μl well) for human assays. Cells were washed twice and starved for 6 hours in medium alone before addition to the stimulation experiments.
as §2
(§4) The immunological properties of the above compounds in NKT cells were measured. Human Vα24-Jα18 NKT cells and fresh purified mouse NKT cells were co-cultured with DC pulsed with αGal-Cer or synthetic glycolipid at concentrations ranging from 0.001 to 1000 ng/mL. IFN-γ production was measured at 48 hours as described above.

[5] = tested on: human Vα24-Jα18 NKT cells; assay: human Vα24-Jα18 NKT cells co-cultured with DC pulsed with synthetic glycolipid; details: for IFN-γ secretion: DC pulsed with 0.001 to 1000 ng/mL glycolipid, 48 hours
Procedure: as §3, §2, §4

[6] = tested on: mouse NKT cells; assay: CD1d-glycolipid tetramer staining of mouse spleen cells
Procedure: (§5) At 6 days post stimulation, CD1d-αGal-Cer, CFSE and αB220 (BD Pharmingen) labeling and staining procedures were performed and cells were analyzed by FACS. To generate CD1d-αGal-Cer tetramers, a mixture of 5 μl of αGal-Cer (from 1 mg/ml stock solution in DMSO), 10 μl of PBS 0.5% Tween 20, 10 μl of biotinylated CD1d (1 mg/ml), and 75 μl of PBS was incubated at 37° C. for 1 hr, and lipid-loaded CD1d was purified by centrifugation dialysis and complexed with streptavidin-APC. (Benlagha K. et al., J. Exp. Med. 191, 1895-1903 (2000).) Cells were analyzed on a FACSCalibur (BD Biosciences) with CellQuest software.
(§6) CD1d tetramers were prepared as described in Example 1 using synthetic glycolipids PBS 30, PBS 59 and PBS 50 and αGal-Cer, and were used to stain human NKT cells and mouse spleen cells.

[7] = tested on: human NKT cells; assay: CD1d-glycolipid tetramer staining of human NKT cells
Procedure: as §5, §6

## CCCCCCCCCCCCCCCCCCCCCCCCCC(=O)N[C@@H](CO[C@H]1O[C@H](CO)[C@H](O)[C@H](O)[C@H]1O)[C@H](O)[C@H](O)CCCCCCCCCCCCCC [αGal-Cer, α-galactosylceramide]
[1]
  IFN-γ secretion by mouse NKT cells: secreted IFN-γ in a CD1d-dependent manner
[2]
  IFN-γ secretion by human NKT cells: CD1d-dependent IFN-γ secretion

## α-galacturonosylceramide [PBS 59]
[3]
  activation of NKT cells: found to activate NKT cells
[4]
  NKT cell proliferation: strongly activated
  IFN-γ secretion: strongly activated
[5]
  NKT cell proliferation: strongly activated
  IFN-γ secretion: strongly activated

## α-glucuronosylceramide [PBS 30]
[3]
  activation of NKT cells: found to activate NKT cells
[6]
  mouse NKT cells stained by CD1d-glycolipid tetramers: ~25%
[7]
  human NKT cells stained by CD1d-glycolipid tetramers: all
[4]
  NKT cell proliferation: strongly activated
  IFN-γ secretion: strongly activated
[5]
  NKT cell proliferation: strongly activated
  IFN-γ secretion: strongly activated

## β-glucuronosylceramide [PBS 50, reference compound]
[3]
  activation of NKT cells: do not activate NKT cells
[4]
  NKT cell proliferation: did not
  IFN-γ secretion: did not
[5]
  NKT cell proliferation: did not
  IFN-γ secretion: did not
